Here are results for 2 compounds from patent publication US12216119B2, “IGF-1 analysis, adjustment and disease management of non-neurological and/or neurological conditions” (THE CGP LAB LIMITED, priority 2017, dated 2025).

The structures appear in SMILES notation.

Test [1] in a line: Vitamin C added to BCA: efficacy of BCA to increase cGP levels. Particulars: added to BCA as ascorbic acid.
Test [2] has as its system rats with ischemic brain injury. Particulars: cited from earlier work.
Test [3] deals with hypertensive rats. Particulars: cited from earlier work.

For the compound `O=C1O[C@H]([C@@H](O)CO)C(O)=C1O` [Vitamin C, ascorbic acid], the “effect on the efficacy of BCA to increase the levels of cGP” value in test [1] is reported as “negative effect”. On to `O=C1NCC(=O)N2CCC[C@@H]12` [cGP, cyclic glycine-proline], for which the ischemic brain injury result in test [2] is recorded as “prevents ischemic brain injury”. For the same compound, in test [3], the systemic blood pressure entry is “normalises the systemic blood pressure”.
